In paper PMC10573954, “Crystal Structure of DNA Replication Protein SsbA Complexed with the Anticancer Drug 5-Fluorouracil” (International Journal of Molecular Sciences, 2023):

What was measured:
[1] = molecular target: T1, SsbA (SaSsbA), single-stranded DNA-binding protein (Staphylococcus aureus, UniProt A0A0D1JHQ1); test: crystal structure ([…] Å) and intrinsic fluorescence quenching titration
T1 construct: gene ssb; recombinant His-tagged SaSsbA (167 aa, pET21b); aa 105–167 not observed in the crystal structure

[2] = molecular target: T2, SsbA (SaSsbA), single-stranded DNA-binding protein (Staphylococcus aureus, UniProt A0A0D1JHQ1, R18A); test: intrinsic fluorescence quenching titration
T2 construct: gene ssb; recombinant His-tagged SaSsbA R18A (pET21b)
T2 sequence (A0A0D1JHQ1 1-167 R18A): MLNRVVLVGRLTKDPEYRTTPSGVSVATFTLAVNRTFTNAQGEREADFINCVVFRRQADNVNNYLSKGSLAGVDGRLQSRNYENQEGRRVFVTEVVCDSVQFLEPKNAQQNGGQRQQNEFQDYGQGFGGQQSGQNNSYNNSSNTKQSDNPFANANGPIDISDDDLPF

`O=c1[nH]cc(F)c(=O)[nH]1` [5-FU, 5-fluorouracil] gave a Kd [1] of 55.9 ± 0.7 µM and a Kd [2] of 498 ± 13.5 µM.
